In this data set the test system is dogs. Description: Myocardial tissue oxygen pressure and pH during cardiac (ventricular) fibrillation in bupivacaine and sham treated dogs. The class given is in vivo, dog. How it is done:
Non-purpose bred male hounds (22-26 kg) were used. Dogs were fasted overnight. On the day of the example, the dog was anesthetized with 5 mg/kg propofol, intubated and ventilated with 1.5% isoflurane and inspired oxygen concentration of 30%. Catheters were inserted into the femoral artery for blood pressure recording and blood gas sampling, and the femoral vein for fluid and drug administration. Sterile saline was infused intravenously (4 ml·kg^−1·hr^−1) for fluid maintenance.
An incision was made along the left 5th intercostal space and the left ventricle exposed. A Paratrend tissue probe (Codman Inc, Newark, N.J.) was calibrated on the day of the study using precision gases. The probe was 0.5 mm in diameter and 2 sensors measuring myocardial tissue oxygen pressure (PmO2) and myocardial pH (pHm) were contained in the final 2 cm. The void surrounding the pHm sensor was filled with acrylamide gel containing phenol red. Changes in hydrogen ion concentration produce color changes in phenol red, which can be detected by the pH fiber optic sensor. A fluorescence method was used to measure the partial pressure of dissolved or gaseous oxygen for the fiber optic PmO2 sensor. The 0%-90% response times for the PmO2 and pHm sensors were 78 s and 70 s, respectively. The probe was inserted into the myocardium in the region between the first and second diagonal branch of the left anterior descending coronary artery, parallel to the surface of the heart 6 mm below the surface using an 18 gauge angiocatheter as an introducer. Mechanical ventilation was adjusted to maintain arterial pCO2 at 35±2 mmHg and inspired oxygen concentration was maintained at 30%, with the balance nitrogen. Body temperature was maintained at 38° C. using a warming pad.
After equilibration of the myocardial tissue probe for 45 minutes, baseline measures of mean arterial pressure (MAP), heart rate, pmO2 and pHm were recorded and an arterial blood gas sample was measured. Each dog received an intravenous infusion of 10 mg/kg bupivacaine over 10 seconds. […] In a preliminary study (early lipid, EL), intervention at the onset of circulatory collapse included an intravenous infusion of either soy lipid emulsion (Intralipid 20%, Fresenius Kabi Clayton, Clayton, N.C.) n=3, or saline, n=3, each administered as a 4 ml/kg bolus (over 2 minutes), followed by a continuous infusion of 0.5 ml·kg^−1·min^−1 for 10 minutes. The protocol was subsequently modified to better simulate a clinical setting, where the start of the infusion might be delayed by several minutes. In this protocol (delayed lipid, DL), internal cardiac massage alone was continued for 10 minutes, then infusion of either the lipid emulsion (n=6) or saline (n=6) was begun as described above. If sinus rhythm returned, internal cardiac massage was continued until MAP reached 30 mmHg and recovery measures of pmO2 and pHm were recorded when blood pressure returned to within 10% of baseline levels. Dogs were killed at the end of the study using a euthanasia solution. The investigators were not blinded to treatment arm.
Data are reported for the DL experiments as mean±SD. pmO2 and pHm were compared between baseline and subsequent treatments within each group using repeated measures analysis of variance with Tukey's tests for post-hoc comparisons. Differences between groups for each treatment were compared by Student's t-test. The proportion of animals surviving bupivacaine challenge in each group was compared in the DL experiment using a z-test. Significance was taken as p<0.05.
There were no significant differences between groups. […] Tissue pH decreased a similar amount in half the time in sham treated dogs, and the rate of pH decrease was greater in these dogs compared to bupivacaine treated dogs.
In four dogs per group, PmO2 and pHm were allowed to decrease for 15 minutes of cardiac fibrillation at the end of the study.

[1] abbreviates: dogs made hypotensive by treatment with bupivacaine.
Where [2] appears, read: during cardiac fibrillation, mean ± SD.
Setting [3] is: during cardiac fibrillation, mean ± SD, P < 0.05 compared to sham.

Molecules are shown by their SMILES.

Turning to `CCCCN1CCCCC1C(=O)Nc1c(C)cccc1C` (stereo not drawn) [Bupivacaine, bupivacaine], where the note is “15 minutes of cardiac fibrillation at the end of the study, four dogs per group, FIG. 1”, the “rate of decrease in pHm, increase in PmCO2 and decrease in PmO2 compared to sham” value is “rate of decrease in pHm and increase in PmCO2 was faster in sham treated dogs, but the rate of decrease in PmO2 was slower compared to bupivacaine treated dogs”. Further, the “acidosis in myocardial tissue” value (dogs made hypotensive by bupivacaine, prolonged hypotension, hypoperfusion and cardiac tissue hypoxia) was “do not develop the expected acidosis in myocardial tissue”. Further, under setting [1], the “cardiac tissue pO2 (intramyocardial probe)” value was “undetectable” and the “systemic blood pressure (BP) after bupivacaine” value was < 40 mmHg. Further, under setting [2], the “PH decrease (myocardial tissue)” value is listed as 0.31 ± 0.08, the PmO2 decrease came to 52 ± 16 mmHg, the “Rate of decrease (PmO2)” value is recorded as 22 ± 5 mmHg/min and the “Time (of PmO2 decrease)” value was found to be 2.5 ± 0.9 min. Also, under setting [3], the “Rate of Decrease (myocardial pH)” value is given as 0.02 ± 0.01 min − 1 and the “Time (of pH decrease)” value was 13.8 ± 5.1 min. Moreover, under “ventricular fibrillation, Table 2 experiment”, the “rate of decrease in PmO2 compared to sham treated dogs” value is “higher rate in bupivacaine treated compared to sham treated dogs, but this difference was not significant”. Moreover, the “factor by which the rate of decrease in pH during fibrillation was reduced” value (ventricular fibrillation, versus sham) is given as “four”.
